Source: publication PMC8151276, “An Integrated Approach toward NanoBRET Tracers for Analysis of GPCR Ligand Engagement” (Molecules, 2021)

Assays:
Format in all cases: binding
ADORA3 = biological target: T1, ADORA3 (Homo sapiens, UniProt P0DMS8); experiment: NanoBRET screen HiBiT-ADORA3 in HEK293
T1 construct: purchased Promega (in-house HiBiT-GPCR construct library, NanoBRET)
T1 sequence (P0DMS8 1-318): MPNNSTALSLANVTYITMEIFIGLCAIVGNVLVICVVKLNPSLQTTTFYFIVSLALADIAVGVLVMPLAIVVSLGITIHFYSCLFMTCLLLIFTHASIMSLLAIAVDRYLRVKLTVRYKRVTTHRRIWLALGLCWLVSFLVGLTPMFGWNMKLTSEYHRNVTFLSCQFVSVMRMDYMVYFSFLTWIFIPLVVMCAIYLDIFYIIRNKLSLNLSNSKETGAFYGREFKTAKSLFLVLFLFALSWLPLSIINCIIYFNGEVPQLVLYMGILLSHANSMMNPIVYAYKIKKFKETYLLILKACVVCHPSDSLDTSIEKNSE
Description: (§1) Each tracer candidate was screened across the entire library of HiBiT-GPCR constructs using NanoBRET as the detection modality. As depicted in Figure 4A, the specificity of interactions was evaluated through decrease in BRET due to competitive displacement of a bound tracer by excess parental compound. Each tracer was analyzed for binding to each HiBiT-GPCR fusion in the absence and in the presence of competing parental compound. Briefly, HEK293 cells were transfected with HiBiT-GPCR constructs diluted into promoterless DNA to reduce expression and maximize translocation to the cell surface. Each tracer candidate was then screened at concentrations of 1 μM and 0.1 μM across cells expressing these fusions. Cells were treated for 1.5 h with tracer either alone or in the presence of 20 μM competing parental compound (i.e., control). BRET was measured upon addition of purified LgBiT and subsequent complementation with HiBiT genetically fused to a GPCR. The specificity of interactions was assessed through a decrease in BRET signal due to competitive displacement of the bound tracer. To further gauge the robustness of these interactions, the fold response over the control (i.e., BRETtracer/BRETcontrol) was calculated. We chose a 1.5-fold response, which translates to ≥7-fold signal over noise as the minimal threshold required to score an interaction as positive. […]. Below we highlight the screening results obtained for our exemplary fluorescent tracers based on Clozapine, Amitriptyline and AZD1283.
(§2) HiBiT-GPCR DNA constructs were diluted in 10 mM Tris pH 8 to a final concentration of 0.01 μg/μL, arrayed in 96-well plates and stored at −20 °C. For transfection, HEK293 cells were suspended in Opti-MEM (without phenol red) supplemented with 2% fetal bovine serum (Seradigm) and 100 units/mL penicillin–streptomycin (Gibco) at a final concentration of 220,000 cells/mL and dispensed into white 96-well plates at 90 μL/well. Subsequent transfections and screens were carried using an Agilent Bravo Automated Liquid Handling Platform. First, the 96-well HiBiT DNA arrays were diluted 25-fold in Opti-MEM (without serum or phenol red) to a final concentration of 0.0004 μg/μL and 20 μL of the diluted DNAs were transferred into new 96-well plates. Next, promoterless carrier DNA (1 μg/μL) was diluted 25-fold (0.04 μg/μL) and then dispensed into the diluted arrays at 20 μL/well. Following brief mixing, Viafect transfection reagent (Promega) diluted 16-fold into Opti-MEM was dispensed into the plates at 40 μL/well. After mixing by pipetting, plates were incubated for 10 min on the pipetting station deck. The DNA-transfection reagent complexes were then added to plates containing cells. To facilitate the screen, 10 μL of DNA-transfection reagent complexes were added in duplicates to the top 4 and bottom 4 rows, resulting in two identical 48-well arrays per plate. Plates with transfected cells were incubated for 18–20 h at 37 °C/5% CO2. A screen of each tracer across the entire library using two different concentrations requires duplicate plates of transfected cells. Depending on the number of tracers being screened, transfections can be scaled up using the same ratios. The next day, for each tracer, four 20× screening solutions in tracer dilution buffer (Promega) were prepared: two duplicates at final concentration of 20 μM and two duplicates at a final concentration of 2 μM. A competing unmodified compound was added to one of each duplicate at a final concentration of 400 μM. The four resulting solutions were diluted 4-fold in Opti-MEM without serum or phenol red to generate 5× solutions (5 µM and 0.5 µM tracer +/− 100 μM competing compound). To screen the library, a BioTek MultiFlo FX liquid dispenser was used to dispense 22.5 µL of tracer solution to the top 4 rows and 22.5 µL tracer + competing compound solution to the 4 bottom rows. Plates were briefly mixed on an orbital shaker and incubated for 1.5 h at room temperature. […]

CCKAR = biological target: T2, CCKAR (Homo sapiens, UniProt P32238); experiment: NanoBRET screen HiBiT-CCKAR in HEK293
T2 construct: purchased Promega (in-house HiBiT-GPCR construct library, NanoBRET)
T2 sequence (P32238 1-428): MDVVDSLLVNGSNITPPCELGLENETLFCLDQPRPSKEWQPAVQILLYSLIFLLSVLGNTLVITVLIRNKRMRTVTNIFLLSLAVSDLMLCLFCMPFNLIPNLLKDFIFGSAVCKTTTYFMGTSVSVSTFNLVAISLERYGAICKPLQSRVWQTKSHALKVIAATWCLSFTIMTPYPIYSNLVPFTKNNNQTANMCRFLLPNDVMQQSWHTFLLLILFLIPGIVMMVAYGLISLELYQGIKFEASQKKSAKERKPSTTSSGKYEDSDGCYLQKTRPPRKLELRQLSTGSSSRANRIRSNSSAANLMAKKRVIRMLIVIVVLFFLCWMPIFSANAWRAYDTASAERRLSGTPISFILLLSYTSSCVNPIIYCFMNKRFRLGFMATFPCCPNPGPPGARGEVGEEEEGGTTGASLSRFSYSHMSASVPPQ
Description: as §1, §2

HTR1B = biological target: T3, HTR1B (Homo sapiens, UniProt P28222); experiment: NanoBRET screen HiBiT-HTR1B in HEK293
T3 construct: purchased Promega (in-house HiBiT-GPCR construct library, NanoBRET)
Description: as §1, §2

MC3R = biological target: T4, MC3R (Homo sapiens, UniProt P41968); experiment: NanoBRET screen HiBiT-MC3R in HEK293
T4 construct: purchased Promega (in-house HiBiT-GPCR construct library, NanoBRET)
Description: as §1, §2

GHSR = biological target: T5, GHSR (Homo sapiens, UniProt Q92847); experiment: NanoBRET screen HiBiT-GHSR in HEK293
T5 construct: purchased Promega (in-house HiBiT-GPCR construct library, NanoBRET)
Description: as §1, §2

OPRK1 = biological target: T6, OPRK1 (Homo sapiens, UniProt P41145); experiment: NanoBRET screen HiBiT-OPRK1 in HEK293
T6 construct: purchased Promega (in-house HiBiT-GPCR construct library, NanoBRET)
Description: as §1, §2

[1] = tracer at 0.1μM, listed as amitriptyline-b-2-NB590
[2] = tracer at 1μM, listed as amitriptyline-b-2-NB590

T5 sequence (Q92847 whole entry): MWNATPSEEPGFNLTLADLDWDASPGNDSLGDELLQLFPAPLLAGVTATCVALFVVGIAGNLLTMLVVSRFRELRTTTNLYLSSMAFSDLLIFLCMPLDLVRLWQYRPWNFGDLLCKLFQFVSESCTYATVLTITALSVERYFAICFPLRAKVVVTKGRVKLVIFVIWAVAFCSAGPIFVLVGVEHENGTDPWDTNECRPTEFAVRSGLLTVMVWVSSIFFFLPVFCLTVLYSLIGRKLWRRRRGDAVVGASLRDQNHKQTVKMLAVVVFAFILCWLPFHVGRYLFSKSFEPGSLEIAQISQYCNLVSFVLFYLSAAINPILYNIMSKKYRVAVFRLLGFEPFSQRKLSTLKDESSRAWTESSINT
T4 sequence (P41968 whole entry): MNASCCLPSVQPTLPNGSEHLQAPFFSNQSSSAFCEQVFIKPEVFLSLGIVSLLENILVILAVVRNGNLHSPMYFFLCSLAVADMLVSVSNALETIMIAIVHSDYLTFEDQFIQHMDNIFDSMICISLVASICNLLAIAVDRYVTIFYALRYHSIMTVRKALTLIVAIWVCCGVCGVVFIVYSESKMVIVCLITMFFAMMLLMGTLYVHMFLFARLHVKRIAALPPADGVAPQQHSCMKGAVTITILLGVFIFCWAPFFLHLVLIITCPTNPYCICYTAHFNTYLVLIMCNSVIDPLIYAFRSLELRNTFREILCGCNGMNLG
T6 sequence (P41145 whole entry): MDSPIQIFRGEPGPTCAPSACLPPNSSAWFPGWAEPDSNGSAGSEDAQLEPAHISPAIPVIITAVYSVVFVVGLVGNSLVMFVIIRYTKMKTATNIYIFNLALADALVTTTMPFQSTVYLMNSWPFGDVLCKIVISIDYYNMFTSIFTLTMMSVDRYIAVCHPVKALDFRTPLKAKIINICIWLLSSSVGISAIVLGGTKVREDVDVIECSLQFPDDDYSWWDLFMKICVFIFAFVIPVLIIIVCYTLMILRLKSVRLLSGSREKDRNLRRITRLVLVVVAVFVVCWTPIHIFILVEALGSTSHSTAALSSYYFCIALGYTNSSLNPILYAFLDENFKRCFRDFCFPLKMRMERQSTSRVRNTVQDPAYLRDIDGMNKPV
T3 sequence (P28222 whole entry): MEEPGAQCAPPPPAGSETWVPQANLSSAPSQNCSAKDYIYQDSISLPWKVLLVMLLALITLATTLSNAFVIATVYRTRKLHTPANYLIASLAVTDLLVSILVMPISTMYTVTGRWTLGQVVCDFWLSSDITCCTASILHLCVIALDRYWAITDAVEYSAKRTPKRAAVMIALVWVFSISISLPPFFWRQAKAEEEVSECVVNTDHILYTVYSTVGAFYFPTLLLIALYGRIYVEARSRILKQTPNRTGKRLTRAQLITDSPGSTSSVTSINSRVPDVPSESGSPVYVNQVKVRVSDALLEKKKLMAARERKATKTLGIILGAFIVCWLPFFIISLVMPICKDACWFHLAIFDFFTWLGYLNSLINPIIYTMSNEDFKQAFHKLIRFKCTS

CN(C)CCC=C1c2ccccc2CCc2ccc(C(=O)NCCNC(=O)CCOCCOCCOCCOCCNC(=O)CCc3ccc4n3[B-](F)(F)[N+]3=C(c5ccc[nH]5)C=CC3=C4)cc21 [Amitriptyline-b-2-NB590]
NanoBRET Fold Response (ADORA3; [1]): 0.87
NanoBRET Fold Response (ADORA3; [2]): 0.66
NanoBRET Fold Response (CCKAR; [1]): 1.11
NanoBRET Fold Response (CCKAR; [2]): 0.98
NanoBRET Fold Response (HTR1B; [1]): 1.76
NanoBRET Fold Response (HTR1B; [2]): 1.34
NanoBRET Fold Response (MC3R; tracer at 0.1μM): 0.98
NanoBRET Fold Response (MC3R; tracer at 1μM): 0.98
NanoBRET Fold Response (GHSR; [1]): 1.07
NanoBRET Fold Response (GHSR; [2]): 0.97
NanoBRET Fold Response (OPRK1; [1]): 1.23
NanoBRET Fold Response (OPRK1; [2]): 1.23

CN(CCC=C1c2ccccc2CCc2ccccc21)C(=O)CCOCCOCCOCCOCCNC(=O)CCc1ccc2n1[B-](F)(F)[N+]1=C(c3ccc[nH]3)C=CC1=C2 [Amitriptyline-e-2-NB590]
NanoBRET Fold Response (ADORA3; tracer at 1μM): 0.99
NanoBRET Fold Response (CCKAR; tracer at 1μM): 1.00
NanoBRET Fold Response (HTR1B; tracer at 1μM): 1.01
NanoBRET Fold Response (OPRK1; tracer at 1μM): 1.05

COc1ccc2c(n1)c(CCNC(C)=O)cn2CCNC(=O)CCc1ccc2n1[B-](F)(F)[N+]1=C(c3ccc[nH]3)C=CC1=C2 [Azamelatonin-1-NB590]
NanoBRET Fold Response (ADORA3; 0.1μM tracer): 1.01
NanoBRET Fold Response (ADORA3; 1μM tracer): 1.02
NanoBRET Fold Response (CCKAR; 0.1μM tracer): 1.21
NanoBRET Fold Response (CCKAR; 1μM tracer): 0.96
NanoBRET Fold Response (HTR1B; 0.1μM tracer): 0.74
NanoBRET Fold Response (HTR1B; 1μM tracer): 0.74
NanoBRET Fold Response (MC3R; 0.1μM tracer): 0.93
NanoBRET Fold Response (MC3R; 1μM tracer): 1.22
NanoBRET Fold Response (GHSR; 0.1μM tracer): 0.93
NanoBRET Fold Response (GHSR; 1μM tracer): 1.03
NanoBRET Fold Response (OPRK1; 0.1μM tracer): 0.92
NanoBRET Fold Response (OPRK1; 1μM tracer): 0.92

COc1ccc2[nH]c(-c3ccc(CNC(=O)CCOCCOCCOCCOCCNC(=O)CCc4ccc5n4[B-](F)(F)[N+]4=C(c6ccc[nH]6)C=CC4=C5)cc3)c(CCNC(C)=O)c2n1 [AzomelatoninICO9-2-NB590]
NanoBRET Fold Response (ADORA3; 0.1μM tracer): 0.91
NanoBRET Fold Response (ADORA3; 1μM tracer): 0.97
NanoBRET Fold Response (CCKAR; 0.1μM tracer): 1.06
NanoBRET Fold Response (CCKAR; 1μM tracer): 1.04
NanoBRET Fold Response (HTR1B; 0.1μM tracer): 0.92
NanoBRET Fold Response (HTR1B; 1μM tracer): 1.13
NanoBRET Fold Response (MC3R; 0.1μM tracer): 1.02
NanoBRET Fold Response (MC3R; 1μM tracer): 0.72
NanoBRET Fold Response (GHSR; 0.1μM tracer): 0.89
NanoBRET Fold Response (GHSR; 1μM tracer): 0.90
NanoBRET Fold Response (OPRK1; 0.1μM tracer): 0.96
NanoBRET Fold Response (OPRK1; 1μM tracer): 0.93

O=C(CCOCCOCCOCCOCCNC(=O)CCc1ccc2n1[B-](F)(F)[N+]1=C(c3ccc[nH]3)C=CC1=C2)NCCCN1CCN(C2=Nc3cc(Cl)ccc3Nc3ccccc32)CC1 [Clozapine-a-2-NB590]
NanoBRET Fold Response (ADORA3; ADORA3, 0.1μM tracer): 1.04
NanoBRET Fold Response (ADORA3; ADORA3, 1μM tracer): 0.83
NanoBRET Fold Response (CCKAR; CCKAR, 0.1μM tracer): 1.01
NanoBRET Fold Response (CCKAR; CCKAR, 1μM tracer): 0.85
NanoBRET Fold Response (HTR1B; HTR1B, 0.1μM tracer): 4.16
NanoBRET Fold Response (HTR1B; HTR1B, 1μM tracer): 2.29
NanoBRET Fold Response (MC3R; MC3R, 0.1μM tracer): 1.02
NanoBRET Fold Response (MC3R; MC3R, 1μM tracer): 0.95
NanoBRET Fold Response (GHSR; GHSR, 0.1μM tracer): 0.95
NanoBRET Fold Response (GHSR; GHSR, 1μM tracer): 1.06
NanoBRET Fold Response (OPRK1; OPRK1, 0.1μM tracer): 1.01
NanoBRET Fold Response (OPRK1; OPRK1, 1μM tracer): 0.97
